The values that follow are results of earlier work, collected in patent US20070020249A1, “COMPOSITIONS FOR PREVENTION AND TREATEMENT OF SYMPTOMS OF GASTROINTESTINAL DISTRESS” (priority 2005, published 2007).

The conditions of the series: humans; Auburn University study.

For “oxygen-coordinated chromium polynicotinate”, the “reduction of LDL cholesterol, average” value is listed as 14%.
